Reference: ChEMBL document CHEMBL1201862, “PubChem BioAssay data set” (2004)
The source made the active and inactive calls.

How the values were obtained:
[1] = cytotoxicity toward DRD oncogenic fibroblasts, dose response, cell-based, non-viral oncogenic, luminescence (AID 1934); format: functional; conditions: Homo sapiens
[2] = cytotoxicity in HEK-293T cells, dose response, cytotoxicity control for TCR NF-kB inhibitor project, luminescence, T-cell screen hits (AID 489026); format: functional, cell-based;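 note: cells exposed to compound about 14 hours before the viability readout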
BJ [3] = assay: cytotoxicity toward BJ-TERT-LT-ST fibroblasts, dose response, cell-based, RAS-independent, luminescence (AID 1935); format: functional; conditions: Homo sapiens;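 note: BJ fibroblasts immortalized with TERT plus LT and ST oncogenes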
BJ [4] = assay: cells; format: functional, cell-based; conditions: Homo sapiens
BJ [5] = assay: cytotoxicity toward BJ-TERT fibroblasts, dose response, cell-based, RAS-independent, luminescence (AID 1933); format: functional; conditions: Homo sapiens
[6] = Fluorescence-based cell-based high throughput dose response assay for inhibitors of the interaction of nucleotide-binding oligomerization domain containing 2 (NOD2) and the receptor-interacting serine-threonine kinase 2 (RIPK2).; format: functional; conditions: Homo sapiens
Cytochrome P450 2C9 = Cytochrome P450 2C9 (Homo sapiens, UniProt P11712)
[7] = target: Luciferin 4-monooxygenase (Photinus pyralis, UniProt P08659); assay: firefly luciferase enzyme inhibitors, dose response, biochemical, luminescence (AID 1891)
Cytochrome P450 3A4 = Cytochrome P450 3A4 (Homo sapiens, UniProt P08684);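 note: CYP3A4 tested as one member of a cytochrome P450 panel screen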
[8] = Luminescence Cell-Based Dose Confirmation HTS to Identify Inhibitors of Platelet Dense Granule Release. [Related pubchem assays: 1663 (Primary HTS), 1678 (Summary of Project)]; format: functional
Cytochrome P450 2C19 = Cytochrome P450 2C19 (Homo sapiens, UniProt P33261); assay: Cytochrome panel assay with activity outcomes. Panel member name: p450-cyp2c19 Compounds with AC50 equal or less than 10 uM are considered active; format: functional; conditions: read-out: AC50
[9] = target: T1, Short transient receptor potential channel 4 (Mus musculus, UniProt Q9QUQ5); assay: mouse TRPC4 channel activators, dose response, cell-based, HEK293 TRPC4/mu-opioid, Fluo-4 calcium (AID 434937); format: functional
T1 sequence (Q9QUQ5 whole entry): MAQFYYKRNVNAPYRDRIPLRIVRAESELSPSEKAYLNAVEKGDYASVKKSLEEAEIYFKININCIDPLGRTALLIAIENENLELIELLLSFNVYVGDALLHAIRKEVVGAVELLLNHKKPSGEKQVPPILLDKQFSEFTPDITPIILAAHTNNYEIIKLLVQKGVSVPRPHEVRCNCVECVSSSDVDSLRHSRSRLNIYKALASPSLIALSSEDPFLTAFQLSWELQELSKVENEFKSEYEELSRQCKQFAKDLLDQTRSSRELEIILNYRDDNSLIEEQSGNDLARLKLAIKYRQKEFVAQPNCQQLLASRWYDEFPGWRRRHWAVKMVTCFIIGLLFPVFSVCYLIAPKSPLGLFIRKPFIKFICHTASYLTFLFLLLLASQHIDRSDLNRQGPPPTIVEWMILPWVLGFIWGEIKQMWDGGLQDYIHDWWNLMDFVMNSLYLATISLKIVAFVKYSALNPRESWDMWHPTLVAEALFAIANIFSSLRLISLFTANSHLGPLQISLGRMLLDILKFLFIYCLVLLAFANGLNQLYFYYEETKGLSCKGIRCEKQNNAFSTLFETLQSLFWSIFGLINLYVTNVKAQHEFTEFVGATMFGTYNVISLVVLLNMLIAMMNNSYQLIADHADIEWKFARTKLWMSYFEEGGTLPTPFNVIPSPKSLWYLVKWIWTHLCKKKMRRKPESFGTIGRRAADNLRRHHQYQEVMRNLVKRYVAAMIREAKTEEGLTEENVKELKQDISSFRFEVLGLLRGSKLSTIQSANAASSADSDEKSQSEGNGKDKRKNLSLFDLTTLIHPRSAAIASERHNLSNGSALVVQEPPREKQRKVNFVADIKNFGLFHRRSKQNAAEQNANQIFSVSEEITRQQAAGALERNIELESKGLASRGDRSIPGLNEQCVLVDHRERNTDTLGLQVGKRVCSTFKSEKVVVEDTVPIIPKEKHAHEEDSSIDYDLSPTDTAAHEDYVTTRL

cells = format: functional, cell-based
[10] = target: FAD-linked sulfhydryl oxidase ALR (Homo sapiens, UniProt P55789); assay: inhibitors of human ALR sulfhydryl oxidase, dose response, biochemical, H2O2 detection, luminescence, cherry-pick (AID 493248)
[11] = target: T2, Nuclear receptor subfamily 0 group B member 1 (Homo sapiens, UniProt P51843); format: functional, cell-based;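 note: HEK293T cells transfected with SF-1 and DAX-1 plus StAR promoter luciferase reporter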
T2 sequence (P51843 whole entry): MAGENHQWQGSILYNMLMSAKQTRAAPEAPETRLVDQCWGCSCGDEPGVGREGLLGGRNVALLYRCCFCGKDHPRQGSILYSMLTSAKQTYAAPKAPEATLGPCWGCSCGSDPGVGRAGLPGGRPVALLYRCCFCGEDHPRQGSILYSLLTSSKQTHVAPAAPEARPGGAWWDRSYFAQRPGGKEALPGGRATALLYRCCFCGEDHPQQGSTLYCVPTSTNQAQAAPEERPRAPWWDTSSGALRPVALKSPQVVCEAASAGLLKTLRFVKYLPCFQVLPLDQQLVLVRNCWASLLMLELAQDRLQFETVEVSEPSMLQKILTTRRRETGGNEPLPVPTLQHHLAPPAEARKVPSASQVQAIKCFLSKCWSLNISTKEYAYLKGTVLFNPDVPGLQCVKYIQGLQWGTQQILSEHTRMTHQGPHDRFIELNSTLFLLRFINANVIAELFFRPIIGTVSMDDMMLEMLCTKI

[12] = target: T3, Apoptotic protease-activating factor 1 (Homo sapiens, UniProt O14727); format: functional
T3 sequence (O14727 whole entry): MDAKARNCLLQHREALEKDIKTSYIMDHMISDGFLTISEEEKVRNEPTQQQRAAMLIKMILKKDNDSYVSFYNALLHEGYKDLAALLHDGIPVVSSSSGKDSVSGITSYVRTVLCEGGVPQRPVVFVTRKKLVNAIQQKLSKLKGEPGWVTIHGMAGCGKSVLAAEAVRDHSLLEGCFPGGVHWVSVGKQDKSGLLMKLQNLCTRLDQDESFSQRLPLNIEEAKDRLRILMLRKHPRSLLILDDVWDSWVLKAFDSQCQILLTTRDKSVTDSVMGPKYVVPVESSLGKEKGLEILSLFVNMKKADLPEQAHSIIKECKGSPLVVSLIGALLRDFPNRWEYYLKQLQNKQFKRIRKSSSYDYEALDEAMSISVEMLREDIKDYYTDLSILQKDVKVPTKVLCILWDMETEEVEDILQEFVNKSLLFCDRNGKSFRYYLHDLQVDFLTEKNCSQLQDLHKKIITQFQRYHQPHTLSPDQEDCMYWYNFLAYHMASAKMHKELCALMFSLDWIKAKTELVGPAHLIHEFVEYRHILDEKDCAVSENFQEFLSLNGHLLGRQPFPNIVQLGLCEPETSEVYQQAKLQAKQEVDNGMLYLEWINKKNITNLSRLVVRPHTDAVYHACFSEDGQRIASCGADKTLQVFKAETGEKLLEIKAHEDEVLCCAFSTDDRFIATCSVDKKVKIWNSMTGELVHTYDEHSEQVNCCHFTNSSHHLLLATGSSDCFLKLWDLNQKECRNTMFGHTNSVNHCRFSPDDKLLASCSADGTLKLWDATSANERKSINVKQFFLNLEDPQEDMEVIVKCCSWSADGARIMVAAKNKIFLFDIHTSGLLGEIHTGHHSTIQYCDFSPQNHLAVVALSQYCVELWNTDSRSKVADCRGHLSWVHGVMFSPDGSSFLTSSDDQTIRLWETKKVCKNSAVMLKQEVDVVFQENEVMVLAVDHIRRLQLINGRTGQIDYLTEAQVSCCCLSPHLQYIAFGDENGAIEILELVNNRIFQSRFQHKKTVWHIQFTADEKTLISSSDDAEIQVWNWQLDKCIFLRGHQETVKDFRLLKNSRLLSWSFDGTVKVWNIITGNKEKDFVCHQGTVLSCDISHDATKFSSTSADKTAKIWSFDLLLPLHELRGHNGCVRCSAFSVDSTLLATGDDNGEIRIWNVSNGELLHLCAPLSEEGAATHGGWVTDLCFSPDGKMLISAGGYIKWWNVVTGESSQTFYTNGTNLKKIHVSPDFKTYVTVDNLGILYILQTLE

Large T antigen = Large T antigen (Simian virus 40, UniProt P03070); format: functional, Betapolyomavirus macacae;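 note: Confirmatory-stage PubChem screen for compounds that inhibit SV40 T antigen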
Vero = assay: cells; format: functional; conditions: Chlorocebus sabaeus
Paired box protein Pax-8 = Paired box protein Pax-8 (Homo sapiens, UniProt Q06710); assay: inhibitors of PAX8-driven TPO luciferase reporter, dose response, RMG-I cells, cherry-pick (AID 687027); format: functional, cell-based;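 note: luciferase reporter driven by Pax8 target thyroperoxidase promoter measured by SteadyGlo luminescence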
INS1 = assay: beta cell apoptosis inhibitors, cytokine rescue, dose response, luminescence, retest (AID 449756); format: functional, cell-based; conditions: Rattus norvegicus;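 note: cell death triggered by IL-1 beta plus TNF-alpha plus IFN-gamma mixture; protective hits raise ATP signal compared with cytokine alone wells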

Sequence of Cytochrome P450 3A4 (P08684 whole entry): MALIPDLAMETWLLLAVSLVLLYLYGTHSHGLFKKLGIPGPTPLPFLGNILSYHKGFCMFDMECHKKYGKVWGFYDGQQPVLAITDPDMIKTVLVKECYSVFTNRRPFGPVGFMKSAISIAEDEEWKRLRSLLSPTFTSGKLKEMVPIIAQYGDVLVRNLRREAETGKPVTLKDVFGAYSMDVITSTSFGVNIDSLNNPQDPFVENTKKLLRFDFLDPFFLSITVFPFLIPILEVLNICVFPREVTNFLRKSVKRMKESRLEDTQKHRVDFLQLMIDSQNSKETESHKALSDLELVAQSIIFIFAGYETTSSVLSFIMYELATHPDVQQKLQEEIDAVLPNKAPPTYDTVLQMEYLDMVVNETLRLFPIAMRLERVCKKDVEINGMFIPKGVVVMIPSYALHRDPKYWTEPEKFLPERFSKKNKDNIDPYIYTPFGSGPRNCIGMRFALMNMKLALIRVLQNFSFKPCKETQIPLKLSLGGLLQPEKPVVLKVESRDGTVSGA
Sequence of FAD-linked sulfhydryl oxidase ALR (P55789 whole entry): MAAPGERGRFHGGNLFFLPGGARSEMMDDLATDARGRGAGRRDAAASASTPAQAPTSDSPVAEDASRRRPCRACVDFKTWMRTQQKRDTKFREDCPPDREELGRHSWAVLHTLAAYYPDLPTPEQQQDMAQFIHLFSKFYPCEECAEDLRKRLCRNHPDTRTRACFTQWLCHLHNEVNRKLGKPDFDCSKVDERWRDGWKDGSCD
Sequence of Paired box protein Pax-8 (Q06710 whole entry): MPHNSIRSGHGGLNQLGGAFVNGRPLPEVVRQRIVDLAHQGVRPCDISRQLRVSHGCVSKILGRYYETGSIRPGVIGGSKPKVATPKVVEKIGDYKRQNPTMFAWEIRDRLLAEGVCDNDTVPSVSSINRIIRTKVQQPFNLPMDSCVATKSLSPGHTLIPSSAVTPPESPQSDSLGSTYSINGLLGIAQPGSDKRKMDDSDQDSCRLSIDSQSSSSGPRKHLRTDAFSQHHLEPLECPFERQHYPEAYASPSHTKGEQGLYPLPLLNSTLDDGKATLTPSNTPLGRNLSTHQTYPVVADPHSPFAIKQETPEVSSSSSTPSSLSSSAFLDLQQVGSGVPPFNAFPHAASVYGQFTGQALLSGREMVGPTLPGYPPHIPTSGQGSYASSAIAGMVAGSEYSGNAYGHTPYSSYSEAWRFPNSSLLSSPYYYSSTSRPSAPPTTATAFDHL
Sequence of Large T antigen (P03070 whole entry): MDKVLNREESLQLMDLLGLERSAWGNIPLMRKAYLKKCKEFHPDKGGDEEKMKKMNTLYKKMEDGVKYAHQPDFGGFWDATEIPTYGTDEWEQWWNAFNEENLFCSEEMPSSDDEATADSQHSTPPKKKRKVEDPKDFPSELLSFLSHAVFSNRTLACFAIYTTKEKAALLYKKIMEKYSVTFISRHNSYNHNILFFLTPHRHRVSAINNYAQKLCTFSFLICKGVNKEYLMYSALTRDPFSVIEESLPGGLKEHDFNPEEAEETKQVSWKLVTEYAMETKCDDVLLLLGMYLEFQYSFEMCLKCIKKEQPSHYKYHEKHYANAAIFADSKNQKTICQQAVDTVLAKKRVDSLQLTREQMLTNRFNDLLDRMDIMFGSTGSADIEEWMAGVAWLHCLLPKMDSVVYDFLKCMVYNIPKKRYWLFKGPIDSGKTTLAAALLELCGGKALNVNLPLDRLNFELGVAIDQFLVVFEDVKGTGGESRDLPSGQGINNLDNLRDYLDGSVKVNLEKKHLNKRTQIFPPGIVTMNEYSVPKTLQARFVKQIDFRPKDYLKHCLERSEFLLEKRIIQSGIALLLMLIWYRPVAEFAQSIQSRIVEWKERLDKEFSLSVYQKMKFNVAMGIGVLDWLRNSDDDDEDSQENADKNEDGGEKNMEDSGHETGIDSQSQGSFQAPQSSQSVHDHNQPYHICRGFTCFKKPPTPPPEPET
Sequence of Luciferin 4-monooxygenase (P08659 whole entry): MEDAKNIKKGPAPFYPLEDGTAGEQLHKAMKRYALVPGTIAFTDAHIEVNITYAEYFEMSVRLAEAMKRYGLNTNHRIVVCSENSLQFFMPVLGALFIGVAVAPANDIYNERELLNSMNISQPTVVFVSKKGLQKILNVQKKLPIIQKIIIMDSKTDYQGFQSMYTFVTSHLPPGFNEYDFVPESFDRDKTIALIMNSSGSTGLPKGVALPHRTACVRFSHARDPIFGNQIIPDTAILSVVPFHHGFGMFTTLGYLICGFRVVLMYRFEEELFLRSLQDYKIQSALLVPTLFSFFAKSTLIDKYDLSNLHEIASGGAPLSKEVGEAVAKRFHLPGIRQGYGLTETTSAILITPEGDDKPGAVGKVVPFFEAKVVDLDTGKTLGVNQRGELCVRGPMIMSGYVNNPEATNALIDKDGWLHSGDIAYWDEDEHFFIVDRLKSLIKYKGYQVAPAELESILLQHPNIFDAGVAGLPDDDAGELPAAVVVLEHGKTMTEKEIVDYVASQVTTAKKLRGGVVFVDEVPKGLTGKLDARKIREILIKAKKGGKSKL
Sequence of Cytochrome P450 2C19 (P33261 whole entry): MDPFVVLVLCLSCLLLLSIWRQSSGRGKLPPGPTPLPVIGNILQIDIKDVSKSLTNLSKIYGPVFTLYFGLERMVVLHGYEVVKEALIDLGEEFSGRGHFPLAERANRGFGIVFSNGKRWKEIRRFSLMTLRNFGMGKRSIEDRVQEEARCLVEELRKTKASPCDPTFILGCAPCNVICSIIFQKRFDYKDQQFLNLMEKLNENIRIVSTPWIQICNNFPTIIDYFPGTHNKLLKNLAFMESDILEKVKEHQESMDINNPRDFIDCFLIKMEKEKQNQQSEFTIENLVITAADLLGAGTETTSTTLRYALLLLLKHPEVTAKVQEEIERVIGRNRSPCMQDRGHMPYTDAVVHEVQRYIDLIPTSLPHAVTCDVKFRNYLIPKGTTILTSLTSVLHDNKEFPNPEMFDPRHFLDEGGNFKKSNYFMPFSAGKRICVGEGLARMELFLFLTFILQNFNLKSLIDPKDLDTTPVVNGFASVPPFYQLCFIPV
Sequence of Cytochrome P450 2C9 (P11712 whole entry): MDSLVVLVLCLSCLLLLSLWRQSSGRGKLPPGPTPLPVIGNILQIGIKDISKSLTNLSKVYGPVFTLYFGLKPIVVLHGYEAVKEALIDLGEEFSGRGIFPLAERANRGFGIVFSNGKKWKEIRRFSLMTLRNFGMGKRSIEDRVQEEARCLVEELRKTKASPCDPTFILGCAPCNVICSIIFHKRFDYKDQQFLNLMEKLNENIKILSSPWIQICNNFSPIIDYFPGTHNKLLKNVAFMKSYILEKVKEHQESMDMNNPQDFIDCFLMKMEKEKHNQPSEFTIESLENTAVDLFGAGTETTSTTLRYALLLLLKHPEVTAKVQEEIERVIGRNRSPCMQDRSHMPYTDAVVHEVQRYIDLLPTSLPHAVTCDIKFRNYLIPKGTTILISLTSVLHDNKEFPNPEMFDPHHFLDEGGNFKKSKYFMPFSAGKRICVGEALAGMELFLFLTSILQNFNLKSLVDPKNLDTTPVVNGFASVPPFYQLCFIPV

CC(=O)Nc1ccc(S(=O)(=O)N2c3ccccc3C(C)=CC2(C)C)cc1
EC50 [1]: 10.4 µM (inconclusive) | IC50 [2]: > 80 µM (inactive) | EC50 (BJ [3]): 9.33 µM (inconclusive) | EC50 (BJ [4]): 13 µM (inconclusive) | EC50 (BJ [5]): 7.82 µM (inconclusive) | IC50 [6]: 49.7 µM (inactive)

COc1ccc(S(N)(=O)=O)cc1C(=O)NCCCN1CCN(c2cccc(Cl)c2)CC1.CS(=O)(=O)O
AC50 (Cytochrome P450 2C9): 0.1 µM (inconclusive) | EC50 [7]: > 112 µM (not active) | AC50 (Cytochrome P450 3A4): inconclusive | EC50 [8]: > 56.1 µM (not active) | AC50 (Cytochrome P450 2C19): 14.1 µM (inconclusive)

Cc1ccc(NC(=O)CCN2CCC(Cc3ccccc3)CC2)cc1
EC50 [9]: 0.0667 µM (active)

COc1ccc(/C=N/Nc2nc3ccccc3o2)cc1O
IC50 (cells): > 67.5 µM (inactive) | AC50 [10]: 2.59 µM (active) | IC50 [11]: > 67.5 µM (inactive)

COc1cc(-c2c(C#N)c(O)nc3c2c(C)nn3-c2ccccc2)ccc1O
IC50 [12]: 20.5 µM (active) | IC50 (Large T antigen): > 100 µM (active)

O=C(COc1ccc(Cl)cc1Cl)NC(=O)NC1CCCC1
IC50 (cells): > 67.5 µM (inactive) | IC50 [11]: > 67.5 µM (inactive)

NCCSc1c(-c2ccc(Cl)cc2)[nH]c2ccccc12
CC50 (Vero): > 25 µM (active) | EC50 [9]: 4.73 µM (active)

COc1c(C=O)c2c(c(OC)c1OC)-c1ccc(OC)c(=O)cc1C(NC(C)=O)CC2 (stereo unspecified)
IC50 (cells): > 67.5 µM (inactive) | IC50 [11]: > 67.5 µM (inactive) | AC50 (Paired box protein Pax-8): < 0.26 µM (active)

CC(Oc1cccc(Cl)c1)C(=O)Nc1cc(S(=O)(=O)N2CCOCC2)ccc1N1CCCCC1 (stereo unspecified)
IC50 [12]: 74.9 µM (active) | AC50 (INS1): 5.41 µM (active)
